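Each compound was tested at five concentrations against cells in 96-well plates for 48 hours. TGI marks complete inhibition of growth.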
What was measured:
Experiment in all cases: NCI anticancer screen, dose series, 48 h
786-0 renal = tested on: 786-0 renal
A498 renal = tested on: A498 renal
A549 NSCLC = tested on: A549 NSCLC
ACHN renal = tested on: ACHN renal
BT-549 breast = tested on: BT-549 breast
CAKI-1 renal = tested on: CAKI-1 renal
CCRF-CEM leukemia = tested on: CCRF-CEM leukemia
COLO 205 colon = tested on: COLO 205 colon
EKVX NSCLC = tested on: EKVX NSCLC
HCT-116 colon = tested on: HCT-116 colon
HCT-15 colon = tested on: HCT-15 colon
HOP-62 NSCLC = tested on: HOP-62 NSCLC
HOP-92 NSCLC = tested on: HOP-92 NSCLC
HS 578T breast = tested on: HS 578T breast
HT29 colon = tested on: HT29 colon
IGROV1 ovarian = tested on: IGROV1 ovarian
K-562 leukemia = tested on: K-562 leukemia
KM12 colon = tested on: KM12 colon
LOX IMVI melanoma = tested on: LOX IMVI melanoma
M14 melanoma = tested on: M14 melanoma
MALME-3M melanoma = tested on: MALME-3M melanoma
MCF7 breast = tested on: MCF7 breast
MDA-MB-231 breast = tested on: MDA-MB-231 breast
MDA-MB-435 = tested on: MDA-MB-435
MDA-N = tested on: MDA-N
MOLT-4 leukemia = tested on: MOLT-4 leukemia
NCI-H226 lung = tested on: NCI-H226 lung
NCI-H23 lung = tested on: NCI-H23 lung
NCI-H460 lung = tested on: NCI-H460 lung
NCI-H522 lung = tested on: NCI-H522 lung
NCI/ADR-RES ovarian = tested on: NCI/ADR-RES ovarian
OVCAR-3 ovarian = tested on: OVCAR-3 ovarian
OVCAR-4 ovarian = tested on: OVCAR-4 ovarian
OVCAR-5 ovarian = tested on: OVCAR-5 ovarian
OVCAR-8 ovarian = tested on: OVCAR-8 ovarian
PC-3 prostate = tested on: PC-3 prostate
RPMI-8226 leukemia = tested on: RPMI-8226 leukemia
RXF 393 renal = tested on: RXF 393 renal
SF-268 CNS = tested on: SF-268 CNS
SF-295 CNS = tested on: SF-295 CNS
SF-539 CNS = tested on: SF-539 CNS
SK-MEL-2 melanoma = tested on: SK-MEL-2 melanoma
SK-MEL-5 melanoma = tested on: SK-MEL-5 melanoma
SK-OV-3 ovarian = tested on: SK-OV-3 ovarian
SNB-19 CNS = tested on: SNB-19 CNS
SNB-75 CNS = tested on: SNB-75 CNS
SR leukemia = tested on: SR leukemia
SW-620 colon = tested on: SW-620 colon
T-47D breast = tested on: T-47D breast
TK-10 renal = tested on: TK-10 renal
U251 CNS = tested on: U251 CNS
UACC-257 melanoma = tested on: UACC-257 melanoma
UACC-62 melanoma = tested on: UACC-62 melanoma
UO-31 renal = tested on: UO-31 renal
DU-145 prostate = tested on: DU-145 prostate
HL-60(TB) leukemia = tested on: HL-60(TB) leukemia
SN12C renal = tested on: SN12C renal
HCC-2998 colon = tested on: HCC-2998 colon
SK-MEL-28 melanoma = tested on: SK-MEL-28 melanoma

CCOC(=O)c1nc2ccccc2nc1NCc1ccc(Cl)cc1Cl
TGI (786-0 renal): > 100 µM
TGI (A498 renal): > 100 µM
TGI (A549 NSCLC): > 100 µM
TGI (ACHN renal): > 100 µM
TGI (BT-549 breast): > 100 µM
TGI (CAKI-1 renal): > 100 µM
TGI (CCRF-CEM leukemia): > 100 µM
TGI (COLO 205 colon): > 100 µM
TGI (EKVX NSCLC): > 100 µM
TGI (HCT-116 colon): > 100 µM
TGI (HCT-15 colon): > 100 µM
TGI (HOP-62 NSCLC): > 100 µM
TGI (HOP-92 NSCLC): > 100 µM
TGI (HS 578T breast): > 100 µM
TGI (HT29 colon): > 100 µM
TGI (IGROV1 ovarian): > 100 µM
TGI (K-562 leukemia): > 100 µM
TGI (KM12 colon): > 100 µM
TGI (LOX IMVI melanoma): > 100 µM
TGI (M14 melanoma): > 100 µM
TGI (MALME-3M melanoma): > 100 µM
TGI (MCF7 breast): > 100 µM
TGI (MDA-MB-231 breast): > 100 µM
TGI (MDA-MB-435): > 100 µM
TGI (MDA-N): > 100 µM
TGI (MOLT-4 leukemia): > 100 µM
TGI (NCI-H226 lung): > 100 µM
TGI (NCI-H23 lung): > 100 µM
TGI (NCI-H460 lung): > 100 µM
TGI (NCI-H522 lung): > 100 µM
TGI (NCI/ADR-RES ovarian): > 100 µM
TGI (OVCAR-3 ovarian): > 100 µM
TGI (OVCAR-4 ovarian): > 100 µM
TGI (OVCAR-5 ovarian): > 100 µM
TGI (OVCAR-8 ovarian): > 100 µM
TGI (PC-3 prostate): > 100 µM
TGI (RPMI-8226 leukemia): > 100 µM
TGI (RXF 393 renal): > 100 µM
TGI (SF-268 CNS): > 100 µM
TGI (SF-295 CNS): > 100 µM
TGI (SF-539 CNS): > 100 µM
TGI (SK-MEL-2 melanoma): > 100 µM
TGI (SK-MEL-5 melanoma): > 100 µM
TGI (SK-OV-3 ovarian): > 100 µM
TGI (SNB-19 CNS): > 100 µM
TGI (SNB-75 CNS): > 100 µM
TGI (SR leukemia): > 100 µM
TGI (SW-620 colon): > 100 µM
TGI (T-47D breast): > 100 µM
TGI (TK-10 renal): > 100 µM
TGI (U251 CNS): > 100 µM
TGI (UACC-257 melanoma): > 100 µM
TGI (UACC-62 melanoma): > 100 µM
TGI (UO-31 renal): > 100 µM

COc1ccc(/C=C/C(=O)C(C)(C)Br)cc1
TGI (786-0 renal): 23.7 µM
TGI (A498 renal): 37.1 µM
TGI (A549 NSCLC): 63.9 µM
TGI (ACHN renal): 25.7 µM
TGI (BT-549 breast): 7.06 µM
TGI (CAKI-1 renal): 35.7 µM
TGI (CCRF-CEM leukemia): 5.22 µM
TGI (COLO 205 colon): 29.5 µM
TGI (DU-145 prostate): 37.2 µM
TGI (EKVX NSCLC): 31.7 µM
TGI (HCT-116 colon): 9.83 µM
TGI (HCT-15 colon): 7.69 µM
TGI (HL-60(TB) leukemia): 69.2 µM
TGI (HOP-62 NSCLC): 25.3 µM
TGI (HOP-92 NSCLC): 27.9 µM
TGI (HS 578T breast): 37.8 µM
TGI (IGROV1 ovarian): 5.76 µM
TGI (K-562 leukemia): > 100 µM
TGI (KM12 colon): 55.1 µM
TGI (LOX IMVI melanoma): 23.3 µM
TGI (M14 melanoma): 3.79 µM
TGI (MALME-3M melanoma): 32 µM
TGI (MCF7 breast): 19.1 µM
TGI (MDA-MB-231 breast): 63.1 µM
TGI (MDA-MB-435): 34.3 µM
TGI (MDA-N): 39.4 µM
TGI (MOLT-4 leukemia): 18.9 µM
TGI (NCI-H23 lung): 6.04 µM
TGI (NCI-H460 lung): 48 µM
TGI (NCI-H522 lung): 2.92 µM
TGI (NCI/ADR-RES ovarian): > 100 µM
TGI (OVCAR-3 ovarian): 35 µM
TGI (OVCAR-5 ovarian): 28.1 µM
TGI (OVCAR-8 ovarian): 11.5 µM
TGI (PC-3 prostate): 36.9 µM
TGI (RPMI-8226 leukemia): 14.6 µM
TGI (RXF 393 renal): 6.09 µM
TGI (SF-268 CNS): 34.7 µM
TGI (SF-295 CNS): 43.9 µM
TGI (SF-539 CNS): 32.2 µM
TGI (SK-MEL-2 melanoma): 27.5 µM
TGI (SK-MEL-5 melanoma): 31.4 µM
TGI (SK-OV-3 ovarian): 63.1 µM
TGI (SN12C renal): 19.6 µM
TGI (SNB-19 CNS): 88.7 µM
TGI (SR leukemia): 13.6 µM
TGI (SW-620 colon): 5.37 µM
TGI (T-47D breast): 76.2 µM
TGI (TK-10 renal): 29.7 µM
TGI (U251 CNS): 28.6 µM
TGI (UACC-257 melanoma): 30.2 µM
TGI (UACC-62 melanoma): 27.1 µM
TGI (UO-31 renal): 16.6 µM

O=C1CC2(CCNCC2)C(=O)N1N1CCOCC1
TGI (786-0 renal): > 100 µM
TGI (A498 renal): > 100 µM
TGI (A549 NSCLC): > 100 µM
TGI (ACHN renal): > 100 µM
TGI (BT-549 breast): > 100 µM
TGI (CAKI-1 renal): > 100 µM
TGI (CCRF-CEM leukemia): > 100 µM
TGI (COLO 205 colon): > 100 µM
TGI (DU-145 prostate): > 100 µM
TGI (EKVX NSCLC): > 100 µM
TGI (HCC-2998 colon): > 100 µM
TGI (HCT-116 colon): > 100 µM
TGI (HCT-15 colon): > 100 µM
TGI (HL-60(TB) leukemia): > 100 µM
TGI (HOP-62 NSCLC): > 100 µM
TGI (HOP-92 NSCLC): > 100 µM
TGI (HS 578T breast): > 100 µM
TGI (HT29 colon): > 100 µM
TGI (IGROV1 ovarian): > 100 µM
TGI (K-562 leukemia): > 100 µM
TGI (KM12 colon): > 100 µM
TGI (LOX IMVI melanoma): > 100 µM
TGI (M14 melanoma): > 100 µM
TGI (MALME-3M melanoma): > 100 µM
TGI (MCF7 breast): > 100 µM
TGI (MDA-MB-231 breast): > 100 µM
TGI (MDA-N): > 100 µM
TGI (MOLT-4 leukemia): > 100 µM
TGI (NCI-H226 lung): > 100 µM
TGI (NCI-H23 lung): > 100 µM
TGI (NCI-H460 lung): > 100 µM
TGI (NCI-H522 lung): > 100 µM
TGI (NCI/ADR-RES ovarian): > 100 µM
TGI (OVCAR-3 ovarian): > 100 µM
TGI (OVCAR-4 ovarian): > 100 µM
TGI (OVCAR-5 ovarian): > 100 µM
TGI (OVCAR-8 ovarian): > 100 µM
TGI (PC-3 prostate): > 100 µM
TGI (RPMI-8226 leukemia): > 100 µM
TGI (RXF 393 renal): > 100 µM
TGI (SF-268 CNS): > 100 µM
TGI (SF-295 CNS): > 100 µM
TGI (SF-539 CNS): > 100 µM
TGI (SK-MEL-2 melanoma): > 100 µM
TGI (SK-MEL-28 melanoma): > 100 µM
TGI (SK-MEL-5 melanoma): > 100 µM
TGI (SK-OV-3 ovarian): > 100 µM
TGI (SN12C renal): > 100 µM
TGI (SNB-19 CNS): > 100 µM
TGI (SNB-75 CNS): > 100 µM
TGI (SR leukemia): > 100 µM
TGI (SW-620 colon): > 100 µM
TGI (T-47D breast): > 100 µM
TGI (TK-10 renal): > 100 µM
TGI (U251 CNS): > 100 µM
TGI (UACC-257 melanoma): > 100 µM
TGI (UACC-62 melanoma): > 100 µM
TGI (UO-31 renal): > 100 µM
